Measured values published in US20220233558A1, “METHOD AND COMPOSITION FOR PREDICTING EFFICACY OF BCL2/BCL-XL INHIBITORS ON CANCER” (Ascentage Pharma (Suzhou) Co., Ltd., priority 2019, published 2022).
Blank lines part the entries; values can stand above or below the compound they belong to.

Experiments:
[1] = target: T1, BCL-XL:BIM complex (Homo sapiens, UniProt Q07817); assay: MSD advanced ELISA of BCL-XL:BIM complex in Toledo cells; assay type: cell-based; set-up: endogenous in cells; host or cells: Toledo; details: treated for 24 hours
Protocol: (§1) MSD advanced ELISA is a method similar to enzyme-linked immunosorbent assay (ELISA) except MSD uses electrochemiluminescence (ECL) as a detection technique while ELISA uses a colormetric reaction. In general, a solution (e.g. cell lysate) containing the protein/complex of interest is added to a substrate (e.g., wells in a plate) coated with a capture antibody specifically binding to a protein of interest. After washing, a second antibody specifically binding to a partner protein that binds to the protein of interest is added. The second antibody (or an antibody binding to the second antibody) is linked to an ECL agent, e.g. a ruthenium (Ru) metal ion, and the substrate contains an electrode. In the presence of the partner protein/protein complex, the second antibody binds to the protein complex, and the ruthenium ion will be close enough proximity to the electrode to trigger an oxidation-reduction reaction that produces light which can be detected by a CCD camera. Compared to a traditional ELISA, MSD has many advantages such as higher sensitivity, better dynamic range, less matric effects, less sample required and better efficiencies. As a result, MSD can be used to detect a protein complex in cell lysate.
(§2) Toledo (a diffuse large B cell lymphoma line) and RS4;11 (an acute lymphocytic leukemia line) were chosen for the study. Cells were treated for 24 hours with compounds specified in FIGS. 6A and 7A (Toledo), and FIGS. 6B and 7B (RS4;11; Compound B, ABT-737 and ABT-263 were used the same concentrations for each cell line) and harvested for complex analysis. Both BCL-2:BIM and BCL-XL:BIM complex were analyzed following previously established MSD advanced ELISA methods.

[2] = target: T1, BCL-XL:BIM complex; assay: MSD advanced ELISA of BCL-XL:BIM complex in RS4;11 cells; assay type: cell-based; set-up: endogenous in cells; host or cells: Toledo; details: treated for 24 hours
Protocol: as §1, §2

[3] = target: BCL-2:BIM complex (Homo sapiens, UniProt P10415); assay: MSD advanced ELISA of BCL-2:BIM complex in Toledo and RS4;11 cells; assay type: cell-based; details: treated for 24 hours
Protocol: Toledo (a diffuse large B cell lymphoma line) and RS4;11 (an acute lymphocytic leukemia line) were chosen for the study. […] Both BCL-2:BIM and BCL-XL:BIM complex were analyzed following previously established MSD advanced ELISA methods.

[4] = target: Mcl-1 protein (Homo sapiens, UniProt Q07820); assay: Binding affinity to Mcl-1 protein
[5] = test system: BCL-2, MCL-1, BIM, PUMA protein levels; assay: Western blotting of apoptosis proteins in PDX samples; assay type: in vivo; details: PDX models, Western blot
Protocol: PDX models (including 8 gastric cancers and 3 esophageal cancers) were selected for trials with BCL-2/BCL-XL dual inhibitor Compound A. Models were treated with 100 mg/kg twice weekly dosing schedule for three weeks, and tumor tissues were harvested for complexes analysis (specified in the figure panels) with MSD methods. Pharmacodynamics (PD) and biomarker studies of Compound A treatment were performed by MSD and Western blotting (WB) assays. Specifically, protein extraction was performed with the sample, level of protein complex was measured by MSD methods, and the level of protein was measured by Western Blotting. TGI for each animal was calculated.

[6] = target: BCL-2 (Homo sapiens, UniProt P10415); assay: Binding affinity to BCL-2 protein
[7] = target: T2, BCL-w (Homo sapiens, UniProt Q92843); assay: Binding affinity to BCL-w protein
T2 sequence (Q92843 1-193): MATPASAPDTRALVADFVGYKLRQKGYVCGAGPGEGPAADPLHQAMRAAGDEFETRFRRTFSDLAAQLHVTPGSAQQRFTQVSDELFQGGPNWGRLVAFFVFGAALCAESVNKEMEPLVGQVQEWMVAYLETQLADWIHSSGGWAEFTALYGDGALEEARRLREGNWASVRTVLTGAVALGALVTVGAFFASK

[8] = target: T1, BCL-XL:BIM complex; assay: MSD assay of BCL-XL complexes in gastric and esophageal cancer PDX models; assay type: in vivo; set-up: endogenous in cells
Protocol: as §1, with “Compared to a traditional ELISA, MSD has many advantages such as higher sensitivity, better dynamic range, less matric effects, less sample required and better efficiencies. As a result, MSD can be used to detect a protein complex in cell lysate.” left out
PDX models (including 8 gastric cancers and 3 esophageal cancers) were selected for trials with BCL-2/BCL-XL dual inhibitor Compound A. Models were treated with 100 mg/kg twice weekly dosing schedule for three weeks, and tumor tissues were harvested for complexes analysis (specified in the figure panels) with MSD methods. […] TGI for each animal was calculated.

[9] = target: BCL-xL (Homo sapiens, UniProt Q07817); assay: Binding affinity to BCL-xL protein
[10] = test system: caspase-3 and PARP; assay: Cleavage of caspase-3 and PARP (apoptosis markers); assay type: cell-based; details: in cancer cells and in xenograft tumor tissues
[11] = test system: cancer cell lines; assay: Cell growth inhibitory activity in vitro; assay type: cell-based; details: subset of cancer cell lines

T1 sequence (Q07817 whole entry, one chain of several): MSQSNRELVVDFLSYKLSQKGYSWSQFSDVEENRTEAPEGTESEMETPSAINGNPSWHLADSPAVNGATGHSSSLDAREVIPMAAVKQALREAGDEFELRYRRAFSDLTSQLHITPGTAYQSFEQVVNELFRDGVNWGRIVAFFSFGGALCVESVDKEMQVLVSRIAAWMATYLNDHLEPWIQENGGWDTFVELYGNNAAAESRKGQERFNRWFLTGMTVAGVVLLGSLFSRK
Sequence of Mcl-1 protein (Q07820 whole entry): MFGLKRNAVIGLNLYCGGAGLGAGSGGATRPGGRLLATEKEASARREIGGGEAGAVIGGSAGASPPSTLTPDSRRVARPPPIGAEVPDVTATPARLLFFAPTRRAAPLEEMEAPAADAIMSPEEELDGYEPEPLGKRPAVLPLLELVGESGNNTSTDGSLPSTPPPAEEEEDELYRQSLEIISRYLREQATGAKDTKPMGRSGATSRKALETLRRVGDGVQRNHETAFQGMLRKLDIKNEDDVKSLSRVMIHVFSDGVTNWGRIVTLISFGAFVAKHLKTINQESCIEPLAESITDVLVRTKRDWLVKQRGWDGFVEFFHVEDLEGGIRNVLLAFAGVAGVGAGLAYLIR
Sequence of BCL-2 (P10415 whole entry): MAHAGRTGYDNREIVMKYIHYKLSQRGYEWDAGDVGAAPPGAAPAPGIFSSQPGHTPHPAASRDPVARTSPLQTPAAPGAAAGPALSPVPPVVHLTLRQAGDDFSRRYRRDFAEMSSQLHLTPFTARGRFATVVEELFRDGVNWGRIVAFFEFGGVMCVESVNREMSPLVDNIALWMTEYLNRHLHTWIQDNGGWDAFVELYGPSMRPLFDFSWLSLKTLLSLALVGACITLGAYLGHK
Sequence of BCL-2:BIM complex (P10415 whole entry, one chain of several): as the sequence (P10415 whole entry) above
Sequence of BCL-xL (Q07817 whole entry): as the sequence (Q07817 whole entry, one chain of several) above

Structure (SMILES): CN(C)CC[C@H](CSc1ccccc1)Nc1ccc(S(=O)(=O)NC(=O)c2ccc(N3CCN(Cc4ccccc4-c4ccc(Cl)cc4)CC3)cc2)cc1[N+](=O)[O-] [ABT-737]
- disruption of BCL-XL:BIM complex [1]: much less disruption of BCL-XL:BIM complex than Compound B
- disruption of BCL-XL:BIM complex [2]: almost no disruption of BCL-xL:BIM complex

- change in BCL-2:BIM complex [3]: reduction in BCL-2:BIM complex
Structure (SMILES): CC1(C)CCC(c2ccc(Cl)cc2)=C(CN2CCN(c3ccc(C(=O)NS(=O)(=O)c4ccc(N[C@H](CCN5CCOCC5)CSc5ccccc5)c(S(=O)(=O)C(F)(F)F)c4)cc3)CC2)C1 [ABT-263]
- disruption of BCL-XL:BIM complex [1]: much less disruption of BCL-XL:BIM complex than Compound B
- disruption of BCL-XL:BIM complex [2]: much less disruption of BCL-XL:BIM complex than Compound B

Structure (SMILES): Cc1c(S(C)(=O)=O)c(-c2cc(F)cc(N3CCN(c4ccc(NS(=O)(=O)c5ccc(N[C@H](CCN6CCC(C(=O)OCCP(=O)(O)O)CC6)CSc6ccccc6)c(S(=O)(=O)C(F)(F)F)c5)cc4)CC3)c2)c(-c2ccc(Cl)cc2)n1C(C)C [Compound A, (R)-2-(1-(3-(4-(N-(4-(4-(3-(2-(4-chlorophenyl)-1-isopropyl-5-methyl-4-(methylsulfonyl)-1H-pyrrol-3-yl)-5-fluorophenyl)piperazin-1-yl)phenyl)sulfamoyl)-2-(trifluoromethylsulfonyl)phenylamino)-4-(phenylthiol)butyl)piperidine-4-carbonyloxy)ethylphosphonic acid]
- affinity to Mcl-1 protein [4]: weak affinity
- BCL-2 and MCL-1 anti-death protein levels after treatment [5]: significantly or in trend increases
- pro-death proteins BIM or PUMA levels after treatment [5]: but not pro-death proteins BIM or PUMA
- IC50 [6]: 1.6 nM
- IC50 [7]: 9.3 nM
- level of BCL-XL:BIM complex after treatment ([8]; PDX models, 100 mg/kg twice weekly for three weeks, MSD assay): dropped
- targeting of BCL-XL versus BCL-2 complex ([8]; in PDX): better in targeting BCL-XL than BCL-2 complex
- IC50 [9]: 4.4 nM
- cleavage of caspase-3 and PARP [10]: effectively induces cleavage of caspase-3 and PARP
- cell growth inhibitory activity [11]: nanomolar potencies

Structure (SMILES): Cc1c(S(C)(=O)=O)c(-c2cc(F)cc(N3CCN(c4ccc(NS(=O)(=O)c5ccc(N[C@H](CCN6CCC(C(=O)O)CC6)CSc6ccccc6)c(S(=O)(=O)C(F)(F)F)c5)cc4)CC3)c2)c(-c2ccc(Cl)cc2)n1C(C)C [Compound B, (R)-1-(3-(4-(N-(4-(4-(3-(2-(4-chlorophenyl)-1-isopropyl-5-methyl-4-(methylsulfonyl)-1H-pyrrol-3-yl)-5-fluorophenyl)piperazin-1-yl)phenyl)sulfamoyl)-2-(trifluoromethylsulfonyl)phenylamino)-4-(phenylthio)butyl)piperldine-4-carboxylic acid]
- disruption of BCL-XL:BIM complex [1]: more potently disrupted BCL-XL:BIM than BCL-2:BIM complex
- disruption of BCL-XL:BIM complex [2]: more potently disrupted BCL-XL:BIM than BCL-2:BIM complex
